# Where no end group is shown, it is not given here.
# Experiments:
# primary CLL cells [1] = experiment: Apoptosis and cell death assays (trypan blue, propidium iodide, Hoechst nuclear morphology, Annexin V); format: cell-based, human
# Description: Lymphocytes were freshly separated from heparinized peripheral blood obtained from normal adult volunteers or adult patients with chronic lymphocytic leukemia (CLL) meeting standard diagnostic guidelines. […] We conformed to all guidelines and regulations in accordance with Internal Review Board protocols ICC2902/11-02-28 (Case Western Reserve University Cancer Center/University Hospitals of Cleveland Ireland Cancer Center). Cells were separated by centrifugation through Ficoll-Hypaque and suspended in RPMI medium supplemented with 10% fetal bovine serum, L-glutamine (2 mM), and nonessential amino acids (100 μM) at a density of 2 million cells/ml. Normal CD19+ B cells were pooled from healthy individuals between 26 and 32 years of age, in accordance with IRB-approval (as above). Mononuclear cells were separated by Ficoll-Hypaque centrifugation, and further isolation of B and T cells was achieved by magnetic separation using CD19 microbeads (Miltenyi Biotec, Bergisch Gladbach, Germany).
# Apoptosis was quantified according to apoptotic nuclear morphology and by detection of phosphatidylserine exposure on the plasma membrane. […] Images were obtained using a chargecoupled device camera (Hamamatsu Photonics, Shizuoka, Japan) and digitally converted by Simple PCI software (Hamamatsu Photonics). Membrane translocation of phosphatidylserine was detected by Annexin V staining. Annexin V-positive cells were assessed by flow cytometry using an ARIA flow cytometer (Beckman Coulter, Pasadena, Calif., USA). All flow cytometry data were analyzed using FlowJo 8.8.4 for Macintosh (Treestar, Ashland, Oreg., USA). Dead cells were identified according to their inability to exclude trypan blue dye or propidium iodide. Trypan blue dye uptake into cells was detected by light microscopy using a 40× objective and quantified by counting up to 400 cells. Propidium iodide uptake was quantified by flow cytometry in association with the Annexin V measurement described above.
# primary CLL cells [2] = experiment: Single cell digital imaging of intracellular Ca2+ (Fura-2); format: cell-based, human
# Description: Lymphocytes were freshly separated from heparinized peripheral blood obtained from normal adult volunteers or adult patients with chronic lymphocytic leukemia (CLL) meeting standard diagnostic guidelines. Patients had either never received treatment or had received treatment over two years prior to obtaining samples. We conformed to all guidelines and regulations in accordance with Internal Review Board protocols ICC2902/11-02-28 (Case Western Reserve University Cancer Center/University Hospitals of Cleveland Ireland Cancer Center). Cells were separated by centrifugation through Ficoll-Hypaque and suspended in RPMI medium supplemented with 10% fetal bovine serum, L-glutamine (2 mM), and nonessential amino acids (100 μM) at a density of 2 million cells/ml. Normal CD19+ B cells were pooled from healthy individuals between 26 and 32 years of age, in accordance with IRB-approval (as above). Mononuclear cells were separated by Ficoll-Hypaque centrifugation, and further isolation of B and T cells was achieved by magnetic separation using CD19 microbeads (Miltenyi Biotec, Bergisch Gladbach, Germany).
# (§1) Methods of Ca^2+ imaging, described in detail previously, were employed here with only minor modification. Briefly, cells adhered to poly-L-lysine-coated coverslips (35-mm coverslip dishes, MatTek Corp., Ashland, Mass.) were loaded with 1 μM Fura-2 AM for 45 min at 25° C. in extracellular buffer (ECB) (130 mM NaCl, 5 mM KCl, 1.5 mM CaCl2, 1 mM MgCl2, 25 mM Hepes, pH 7.5, 1 mg/ml BSA, and 5 mM glucose). The buffer was replaced with fresh ECB and the incubation continued for […] at 25° C. to permit de-esterification. Culture dishes were mounted on the non-heated stage of an inverted microscope (Olympus CKX41) equipped with a 20× Fluor objective. Excitation light was alternated between 340 and 380 nm by a filter wheel (Sutter Instrument Co.), with 0.8 sec and 0.2 sec exposure times respectively, and emitted light was filtered at >510 nm and collected with an intensified charge-coupled device camera (Cooke 12 bit VGA). The video signal was digitized using InCyt Im2 software (Intracellular Imaging) and subsequently processed using Microsoft Excel. To determine Rmin cells were perfused with ECB deficient in Ca^2+ and supplemented with 4 mM EGTA and 10 μM ionomycin. Rmax was obtained by perfusing cells with ECB supplemented with 4 mM CaCl2 and 10 μM ionomycin. […] In most experiments peptides were fused with the cell penetrating peptide of HIV TAT to facilitate uptake by cells. In some experiments peptides, without linkage to TAT, were delivered into cells using Chariot reagent (Active Motif) as previously described. Xestospongin C (Enzo Life Sciences International) and U73122 (Sigma), both dissolved in DMSO, were added to cells […] prior to Ca^2+ measurements.
# Bcl-B = biological target: T1, Bcl-B (Homo sapiens, UniProt Q9HD36); settings: read-out: inhibitory concentration of 50% (IC50) for displacing BH3 peptides; cited from earlier work
# T1 sequence (Q9HD36 1-204): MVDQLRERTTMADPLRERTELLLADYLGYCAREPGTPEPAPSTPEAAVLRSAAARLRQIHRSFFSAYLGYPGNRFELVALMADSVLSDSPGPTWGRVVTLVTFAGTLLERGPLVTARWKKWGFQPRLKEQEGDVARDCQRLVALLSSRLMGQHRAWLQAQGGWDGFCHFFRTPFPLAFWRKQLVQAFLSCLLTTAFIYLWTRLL
# Bcl-XL = Bcl-XL (Homo sapiens, UniProt Q07817); settings: read-out: inhibitory concentration of 50% (IC50) for displacing BH3 peptides; cited from earlier work
# Bfl-1 = biological target: T2, Bfl-1 (Homo sapiens, UniProt Q16548); settings: read-out: inhibitory concentration of 50% (IC50) for displacing BH3 peptides; cited from earlier work
# T2 sequence (Q16548 1-175): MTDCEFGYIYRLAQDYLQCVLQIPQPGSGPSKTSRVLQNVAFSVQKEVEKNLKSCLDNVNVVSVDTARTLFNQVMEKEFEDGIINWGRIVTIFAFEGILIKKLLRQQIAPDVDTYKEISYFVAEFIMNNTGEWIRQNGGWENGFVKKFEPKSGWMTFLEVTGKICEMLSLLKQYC
# Jurkat cells = experiment: Single cell digital imaging of intracellular Ca2+ (Fura-2); format: cell-based, human; settings: for effect on percentage of cells displaying peptide-induced Ca2+ oscillations: xestospongin C 10 μM, U73122 0.25 μM, peptide 10 μM, 90 min, FIG. 8A
# Protocol: (§2) WEHI7.2 cells were cultured in DMEM supplemented with 10% fetal calf serum, L-glutamine (2 mM), and nonessential amino acids (100 μM). Transfections of WEHI7.2 cells with expression vectors encoding wild type Bcl-2 and Bcl-2RS/GG were described previously. Jurkat cells and RS11846 cells were cultured in RPMI medium supplemented with 10% fetal bovine serum, L-glutamine (2 mM), and nonessential amino acids (100 μM). Cells were maintained in 5% carbon dioxide at high humidity.
# as §1
# [3] = test system: Bcl-2-positive WEHI7.2 cells; experiment: as above; format: cell-based, murine
# Protocol: as §2
# Methods of Ca^2+ imaging, described in detail previously, were employed here with only minor modification. Briefly, cells adhered to poly-L-lysine-coated coverslips (35-mm coverslip dishes, MatTek Corp., Ashland, Mass.) were loaded with 1 μM Fura-2 AM for 45 min at 25° C. in extracellular buffer (ECB) (130 mM NaCl, 5 mM KCl, 1.5 mM CaCl2, 1 mM MgCl2, 25 mM Hepes, pH 7.5, 1 mg/ml BSA, and 5 mM glucose). The buffer was replaced with fresh ECB and the incubation continued for […] at 25° C. to permit de-esterification. Culture dishes were mounted on the non-heated stage of an inverted microscope (Olympus CKX41) equipped with a 20× Fluor objective. […]
# Bcl-2-IP3R interaction = biological target: T3, Bcl-2-IP3R interaction (Homo sapiens, UniProt P10415); experiment: Co-immunoprecipitation assay; format: binding; settings: 200 μM peptide, lysate of WEHI7.2 cells overexpressing wild type Bcl-2
# T3 construct: expressed in transfected cells; host or cells: WEHI7.2 (murine T cell lymphoma); IP3R endogenous
# Protocol: One hundred million WEHI7.2 cells overexpressing wild type Bcl-2 were washed twice with PBS and then lysed on ice for 30 min in 1 ml CHAPS buffer. The supernatant was prepared by centrifugation for 15 min at 20,000 g at 4° C. The supernatant (1 ml) was mixed with 100 μl 50% protein G in Tris 50 mM pH 7.5 buffer and rotated at 4 C for 2 hrs. After removing the beads, the supernatant was incubated with 200 μM peptide (Scr or IDPDD/AA, or without peptide addition, for 2 hrs at 4° C. Then hamster anti-human Bcl-2 antibody was added (final dilution 1:250) and the supernatant was rotated for 16 hrs at 4 C, followed by rotation in the presence of 50 μl protein G (50% beads) for 2 hours at 4 C. The beads were washed six times with CHAPS buffer and boiled for 5 min in SDS sample buffer followed by resolution of proteins by SDS-PAGE and analysis by western blotting for the IP3R using anti-IP3R antibody (BD Biosciences (Cat #610313) at 1:2,000 dilution and for Bcl-2 as described above.
# Bcl-2 = Bcl-2 (Homo sapiens, UniProt P10415); experiment: Biotin-streptavidin pulldown assay; format: binding; settings: 200 μM biotin-peptide, lysate of WEHI7.2 cells overexpressing wild type Bcl-2
# Protocol: WEHI7.2 cells overexpressing wild type Bcl-2 were washed twice with PBS and incubated on ice for 30 min in 400 ul CHAPS lysis buffer (50 mM Tris-HCL pH 7.5, 100 mM NaCL, 2 mM EDTA, 1% CHAPS, 50 mM NaF, 1 mM Na3VO4, protease inhibitor cocktail, PhosSTOP). Cell lysates were centrifuged for 15 min at 20,000 g at 4 C and the supernatant (protein concentration 5 mg/ml) was continuously rotated with 200 μM biotin-Scr or biotin-IDPDD/AA, or without peptide, at 4 C for 16 hr. Streptavidin Sepharose beads ([…]) (Pierce Pull-Down Biotinylated Protein:Protein Interaction Kit, Thermo, Cat #21115) were washed three times with tris buffered saline (25 mM Tris.HCL, 0.15M NaCl, pH 7) and then added to 400 μl cell lysate, followed by rotation for 2 hours at 4 C. After this, the beads were washed four times with tris buffered saline, centrifuging for 30-60 second each time. The beads were then incubated for 3-5 min at room temperature with 50 μl elution buffer provided with the Pierce pulldown kit (above) and centrifuged at 1,250×g for 30-60 seconds. The supernatant was boiled in SDS-PAGE sample buffer for 5 min and western blotting for Bcl-2 was performed as described above.
# [4] = test system: IP3R-mediated Ca2+ release inhibited by BH4-Bcl-2; experiment: Unidirectional 45Ca2+-flux assay in permeabilized MEF cells; format: cell-based; settings: 40 μM IDPDD/AA, 40 μM BH4-Bcl-2 peptide, 3 μM IP3, FIG. 7
# Protocol: Twelve-well clusters containing MEF cells were fixed on a thermostated plate at 30° C. on a mechanical shaker. The culture medium was aspirated, and the cells were permeabilized by incubating them for 10 min in a solution containing 120 mM KCl, 30 mM imidazole-HCl (pH 6.8), 2 mM MgCl2, 1 mM ATP, 1 mM EGTA and 20 μg/ml saponin. The non-mitochondrial Ca^2+ stores were then loaded for 45 min in 120 mM KCl, 30 mM imidazole-HCl (pH 6.8), 5 mM MgCl2, 5 mM ATP, 0.44 mM EGTA, 10 mM NaN3 and 150 nM free ^45Ca^2+ (28 μCi/ml). Then, 1 ml of efflux medium containing 120 mM KCl, 30 mM imidazole-HCl (pH 6.8) and 1 mM EGTA was added and replaced every 2 min IP3 (3 μM) was added for 2 min after 10 min of efflux. BH4-Bcl2 peptide (40 μM), in the presence or not of IDPDD/AA peptide (40 μM), was added from 4 min before IP3 to 2 min after IP3. At the end of the experiment, all 45Ca^2+ remaining in the stores was released by incubation with 1 ml of a 2% (w/v) sodium dodecyl sulfate solution for 30 min Ca^2+ release was plotted as fractional loss (%/2 min) as a function of time, as previously described.
# [5] = test system: Bcl-2-positive WEHI7.2 cells; settings: data not shown
# T3 sequence (P10415 whole entry): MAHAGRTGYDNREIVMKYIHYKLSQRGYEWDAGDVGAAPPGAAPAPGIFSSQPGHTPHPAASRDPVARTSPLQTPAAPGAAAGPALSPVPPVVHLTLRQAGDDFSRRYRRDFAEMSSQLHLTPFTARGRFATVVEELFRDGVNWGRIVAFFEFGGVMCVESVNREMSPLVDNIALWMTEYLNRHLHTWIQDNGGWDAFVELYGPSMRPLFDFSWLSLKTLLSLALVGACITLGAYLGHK
# Bcl-2, sequence (P10415 whole entry, species assumed): as the sequence (P10415 whole entry) above
# Bcl-XL, sequence (Q07817 whole entry, species assumed): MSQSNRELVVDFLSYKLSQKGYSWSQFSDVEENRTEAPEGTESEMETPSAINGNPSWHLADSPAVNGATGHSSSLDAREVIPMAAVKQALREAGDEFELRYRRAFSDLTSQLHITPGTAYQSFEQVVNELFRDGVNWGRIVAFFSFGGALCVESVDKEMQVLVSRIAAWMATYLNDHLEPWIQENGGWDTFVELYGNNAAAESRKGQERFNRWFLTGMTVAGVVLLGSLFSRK
molecule,measurement,setting,value
"CN(C)CCC(CSc1ccccc1)Nc1ccc(S(=O)(=O)NC(=O)c2ccc(N3CCN(Cc4ccccc4-c4ccc(Cl)cc4)CC3)cc2)cc1[N+](=O)[O-] (centres unmarked) [ABT-737, N-[4-[4-(4′-Chloro-biphenyl-2-ylmethyl)-piperazin-1-yl]-benzoyl)-4-(3-dimethylamino-1-phenylsulfanylmethyl-propylamino)-3-nitro-benzenesulfonamide, reference compound]",death of CLL cells,"primary CLL cells [1]; 2 μM, 24 hr, trypan blue dye uptake, FIG. 11B",40%
same,induction of Ca2+ elevation,"primary CLL cells [2]; 2 μM ABT-737, FIG. 11A",did not induce Ca^2+ elevation
"Cc1cc2c(C(C)C)c(O)c(O)c(C=O)c2c(O)c1-c1c(C)cc2c(C(C)C)c(O)c(O)c(C=O)c2c1O [Gossypol, 1,6,7,1′,6′,7′-Hexahydroxy-5,5′-diisopropyl-3,3′-dimethyl-[2,2′]binaphthalenyl-8,8′-dicarbaldehyde]",IC50,Bcl-B,~0.5 µM
same,IC50,Bcl-XL,~0.5 µM
same,IC50,Bfl-1,~0.5 µM
COc1ccc2c(c1)CC[C@@H]1[C@@H]2CC[C@]2(C)[C@@H](NCCCCCCN3C(=O)C=CC3=O)CC[C@@H]12 [U73122],effect on percentage of cells displaying peptide-induced Ca2+ oscillations,Jurkat cells,reduced
"C1CCC[C@H]2CCCN3CC[C@@H](CCCCCC[C@@H]4CCCN5CC[C@@H](CC1)O[C@@H]45)O[C@@H]23 [xestospongin C, reference compound]",effect on apoptosis induction by TAT-IDPDD/AA,primary CLL cells [1]; CLL cells,inhibited
same,effect on Ca2+ responses to TAT-IDP and TAT-IDPDD/AA,primary CLL cells [2]; CLL cells,inhibited
same,effect on percentage of cells displaying peptide-induced Ca2+ oscillations,Jurkat cells,reduced
"IDP: synthetic IP3R-derived peptide, 20 amino acid sequence within the Bcl-2-binding site on the IP3R (RKKRRQRRRGGNVYTEIKCNSLLPLDDIVRV; listed as Homo sapiens)",number of Ca2+ spikes observed per cell,"[3]; 2 μM peptide, 70 min recordings, FIG. 2",very infrequent
same,induction of Ca2+ elevations,"[3]; peptide introduced by Chariot peptide uptake reagent, data not shown",induced Ca^2+ elevations
"NVYTEIKCNSLLPLAAIVRV (listed as Homo sapiens) [IDPDD/AA, IDP with DD/AA substitution, without TAT]",disruption of Bcl-2-IP3R interaction,Bcl-2-IP3R interaction,confirmed
same,interaction with Bcl-2,Bcl-2,documented
same,effect on Bcl-2-imposed inhibition of IP3-induced 45Ca2+ efflux from the ER,[4],reversed
RKKRRQRRRGGNVYTEIKCNSLLPLDDIVRV [TAT-IDP],cell viability following treatment,[5],not lost
pepstatin A,effect of pretreatment on amplitude of peptide-induced Ca2+ elevations,Jurkat cells; TAT-IDP in Jurkat cells,significant enhancement
same,effect of pretreatment on percentage of cells displaying peptide-induced calcium elevations,Jurkat cells; TAT-IDP in Jurkat cells,"slight, but not significant, increase"

# — patent US9657073B2, “Inhibitors of Bcl-2” (Case Western Reserve University, priority 2010, dated 2017)
